Results as given in the supplement of paper PMC10733146.

Key:
Test in all cases: viability relative to DMSO control (fraction); higher = less drug effect (more viable cells)
Conditions in all cases: 48 h
[1] = system: primary MCL patient cells (S041)
Outline: (§1)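 The cells were primary mononuclear tumour cells, either fresh or cryopreserved, isolated by Ficoll from blood or bone marrow or derived from processed lymph node. Each well of a 384-well plate received 4 × 10^4 cells onto compounds pre-plated at five concentrations, with one well per concentration. The medium was RPMI-1640 with penicillin/streptomycin, L-glutamine and human serum, and plates stood at 37 °C and 5% CO2 for 48 h. Viability is reported as CellTiter-Glo luminescence relative to the median of 16 inner DMSO wells.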

[2] = system: primary AML patient cells (S056)
Outline: as §1

[3] = system: primary AML patient cells (S085)
Outline: as §1

[4] = system: primary AML patient cells (S079)
Outline: as §1

[5] = system: primary AML patient cells (S006)
Outline: as §1

[6] = system: primary FL patient cells (S087)
Outline: as §1

[7] = system: primary AML patient cells (S060)
Outline: as §1

[8] = system: primary AML patient cells (S071)
Outline: as §1

[9] = system: primary AML patient cells (S017)
Outline: as §1

[10] = system: primary MCL patient cells (S063)
Outline: as §1

[11] = system: primary BL patient cells (S005)
Outline: as §1

[12] = system: primary DLBCL patient cells (S082)
Outline: as §1

[13] = system: primary ALL patient cells (S088)
Outline: as §1

[14] = system: primary AML patient cells (S072)
Outline: as §1

[15] = system: primary MCL patient cells (S053)
Outline: as §1

[16] = system: primary CLL patient cells (S031)
Outline: as §1

[17] = system: primary AML patient cells (S009)
Outline: as §1

[18] = system: primary B-PLL patient cells (S016)
Outline: as §1

[19] = system: primary CLL patient cells (S043)
Outline: as §1

[20] = system: primary AML patient cells (S012)
Outline: as §1

SMILES: CC[C@H](Nc1ncnc2[nH]cnc12)c1nc2cccc(F)c2c(=O)n1-c1ccccc1 [Idelalisib]
- viability ([1]; 0.0032 µM): 0.949
- viability ([1]; 0.016 µM): 0.908
- viability ([1]; 0.08 µM): 0.886
- viability ([1]; 0.4 µM): 0.893
- viability ([1]; 2 µM): 0.887
- viability ([2]; 0.0032 µM): 1.02
- viability ([2]; 0.016 µM): 1.02
- viability ([2]; 0.08 µM): 0.954
- viability ([2]; 0.4 µM): 0.896
- viability ([2]; 2 µM): 0.911
- viability ([3]; 0.0032 µM): 1.04
- viability ([3]; 0.016 µM): 0.844
- viability ([3]; 0.08 µM): 0.788
- viability ([3]; 0.4 µM): 0.82
- viability ([3]; 2 µM): 0.755
- viability ([4]; 0.0032 µM): 1.01
- viability ([4]; 0.016 µM): 0.954
- viability ([4]; 0.08 µM): 0.906
- viability ([4]; 0.4 µM): 0.844
- viability ([4]; 2 µM): 0.793
- viability ([5]; 0.0032 µM): 1.02
- viability ([5]; 0.016 µM): 0.97
- viability ([5]; 0.08 µM): 0.943
- viability ([5]; 0.4 µM): 0.885
- viability ([5]; 2 µM): 0.882
- viability ([6]; 0.0032 µM): 0.984
- viability ([6]; 0.016 µM): 0.923
- viability ([6]; 0.08 µM): 0.848
- viability ([6]; 0.4 µM): 0.78
- viability ([6]; 2 µM): 0.793
- viability ([7]; 0.0032 µM): 1.04
- viability ([7]; 0.016 µM): 1.02
- viability ([7]; 0.08 µM): 1.03
- viability ([7]; 0.4 µM): 1.08
- viability ([7]; 2 µM): 1.03
- viability ([8]; 0.0032 µM): 0.959
- viability ([8]; 0.016 µM): 0.868
- viability ([8]; 0.08 µM): 0.812
- viability ([8]; 0.4 µM): 0.733
- viability ([8]; 2 µM): 0.662
- viability ([9]; 0.0032 µM): 1.09
- viability ([9]; 0.016 µM): 1.1
- viability ([9]; 0.08 µM): 1.16
- viability ([9]; 0.4 µM): 0.988
- viability ([9]; 2 µM): 0.808
- viability ([10]; 0.0032 µM): 0.918
- viability ([10]; 0.016 µM): 0.792
- viability ([10]; 0.08 µM): 0.73
- viability ([10]; 0.4 µM): 0.693
- viability ([10]; 2 µM): 0.595
- viability ([11]; 0.0032 µM): 1
- viability ([11]; 0.016 µM): 0.95
- viability ([11]; 0.08 µM): 0.982
- viability ([11]; 0.4 µM): 1.01
- viability ([11]; 2 µM): 0.86
- viability ([12]; 0.0032 µM): 1.05
- viability ([12]; 0.016 µM): 0.893
- viability ([12]; 0.08 µM): 0.812
- viability ([12]; 0.4 µM): 0.768
- viability ([12]; 2 µM): 0.668
- viability ([13]; 0.0032 µM): 1.02
- viability ([13]; 0.016 µM): 0.948
- viability ([13]; 0.08 µM): 0.895
- viability ([13]; 0.4 µM): 0.914
- viability ([13]; 2 µM): 0.831
- viability ([14]; 0.0032 µM): 0.995
- viability ([14]; 0.016 µM): 0.883
- viability ([14]; 0.08 µM): 0.922
- viability ([14]; 0.4 µM): 0.82
- viability ([14]; 2 µM): 0.803
- viability ([15]; 0.0032 µM): 1.02
- viability ([15]; 0.016 µM): 0.96
- viability ([15]; 0.08 µM): 0.946
- viability ([15]; 0.4 µM): 0.877
- viability ([15]; 2 µM): 0.815
- viability ([16]; 0.0032 µM): 0.974
- viability ([16]; 0.016 µM): 0.861
- viability ([16]; 0.08 µM): 0.731
- viability ([16]; 0.4 µM): 0.654
- viability ([16]; 2 µM): 0.569
- viability ([17]; 0.0032 µM): 0.985
- viability ([17]; 0.016 µM): 1.02
- viability ([17]; 0.08 µM): 1.04
- viability ([17]; 0.4 µM): 0.998
- viability ([17]; 2 µM): 0.905
- viability ([18]; 0.0032 µM): 1.08
- viability ([18]; 0.016 µM): 0.889
- viability ([18]; 0.08 µM): 0.905
- viability ([18]; 0.4 µM): 0.794
- viability ([18]; 2 µM): 0.751
- viability ([19]; 0.0032 µM): 0.909
- viability ([19]; 0.016 µM): 0.805
- viability ([19]; 0.08 µM): 0.719
- viability ([19]; 0.4 µM): 0.745
- viability ([19]; 2 µM): 0.691
- viability ([20]; 0.0032 µM): 1.02
- viability ([20]; 0.016 µM): 0.982
- viability ([20]; 0.08 µM): 1.18
- viability ([20]; 0.4 µM): 1.04
- viability ([20]; 2 µM): 1.06

SMILES: COc1cccc2c1C(=O)c1c(O)c3c(c(O)c1C2=O)C[C@@](O)(C(=O)CO)C[C@@H]3O[C@H]1C[C@H](N)[C@H](O)[C@H](C)O1 [Doxorubicin]
- viability ([1]; 0.0016 µM): 0.994
- viability ([1]; 0.008 µM): 1
- viability ([1]; 0.04 µM): 0.942
- viability ([1]; 0.2 µM): 0.488
- viability ([1]; 1 µM): 0.0259
- viability ([2]; 0.0016 µM): 1.02
- viability ([2]; 0.008 µM): 0.889
- viability ([2]; 0.04 µM): 0.812
- viability ([2]; 0.2 µM): 0.584
- viability ([2]; 1 µM): 0.0807
- viability ([3]; 0.0016 µM): 0.94
- viability ([3]; 0.008 µM): 1.09
- viability ([3]; 0.04 µM): 0.834
- viability ([3]; 0.2 µM): 0.278
- viability ([3]; 1 µM): 0.0284
- viability ([4]; 0.0016 µM): 1.05
- viability ([4]; 0.008 µM): 1.1
- viability ([4]; 0.04 µM): 1.03
- viability ([4]; 0.2 µM): 0.769
- viability ([4]; 1 µM): 0.244
- viability ([5]; 0.0016 µM): 1.02
- viability ([5]; 0.008 µM): 1.05
- viability ([5]; 0.04 µM): 0.788
- viability ([5]; 0.2 µM): 0.32
- viability ([5]; 1 µM): 0.0625
- viability ([6]; 0.0016 µM): 1.04
- viability ([6]; 0.008 µM): 1.03
- viability ([6]; 0.04 µM): 0.98
- viability ([6]; 0.2 µM): 0.776
- viability ([6]; 1 µM): 0.584
- viability ([7]; 0.0016 µM): 1.03
- viability ([7]; 0.008 µM): 1.05
- viability ([7]; 0.04 µM): 1.04
- viability ([7]; 0.2 µM): 1.16
- viability ([7]; 1 µM): 0.124
- viability ([8]; 0.0016 µM): 0.978
- viability ([8]; 0.008 µM): 0.745
- viability ([8]; 0.04 µM): 0.27
- viability ([8]; 0.2 µM): 0.116
- viability ([8]; 1 µM): 0.0761
- viability ([9]; 0.0016 µM): 1.2
- viability ([9]; 0.008 µM): 1.1
- viability ([9]; 0.04 µM): 1.07
- viability ([9]; 0.2 µM): 0.96
- viability ([9]; 1 µM): 0.146
- viability ([10]; 0.0016 µM): 1.01
- viability ([10]; 0.008 µM): 0.98
- viability ([10]; 0.04 µM): 0.997
- viability ([10]; 0.2 µM): 0.735
- viability ([10]; 1 µM): 0.0566
- viability ([11]; 0.0016 µM): 1.03
- viability ([11]; 0.008 µM): 1.03
- viability ([11]; 0.04 µM): 0.968
- viability ([11]; 0.2 µM): 0.875
- viability ([11]; 1 µM): 0.838
- viability ([12]; 0.0016 µM): 1.11
- viability ([12]; 0.008 µM): 1.1
- viability ([12]; 0.04 µM): 0.945
- viability ([12]; 0.2 µM): 0.878
- viability ([12]; 1 µM): 0.0843
- viability ([13]; 0.0016 µM): 1.05
- viability ([13]; 0.008 µM): 1.02
- viability ([13]; 0.04 µM): 0.828
- viability ([13]; 0.2 µM): 0.221
- viability ([13]; 1 µM): 0.0329
- viability ([14]; 0.0016 µM): 1.05
- viability ([14]; 0.008 µM): 1.01
- viability ([14]; 0.04 µM): 0.947
- viability ([14]; 0.2 µM): 0.704
- viability ([14]; 1 µM): 0.162
- viability ([15]; 0.0016 µM): 0.959
- viability ([15]; 0.008 µM): 0.756
- viability ([15]; 0.04 µM): 0.448
- viability ([15]; 0.2 µM): 0.216
- viability ([15]; 1 µM): 0.299
- viability ([16]; 0.0016 µM): 1.14
- viability ([16]; 0.008 µM): 1.02
- viability ([16]; 0.04 µM): 0.534
- viability ([16]; 0.2 µM): 0.0601
- viability ([16]; 1 µM): 0.0158
- viability ([17]; 0.0016 µM): 1.07
- viability ([17]; 0.008 µM): 0.994
- viability ([17]; 0.04 µM): 0.934
- viability ([17]; 0.2 µM): 0.644
- viability ([17]; 1 µM): 0.221
- viability ([18]; 0.0016 µM): 1.09
- viability ([18]; 0.008 µM): 0.847
- viability ([18]; 0.04 µM): 0.175
- viability ([18]; 0.2 µM): 0.0427
- viability ([18]; 1 µM): 0.0239
- viability ([19]; 0.0016 µM): 1.03
- viability ([19]; 0.008 µM): 0.956
- viability ([19]; 0.04 µM): 0.97
- viability ([19]; 0.2 µM): 0.615
- viability ([19]; 1 µM): 0.0447
- viability ([20]; 0.0016 µM): 1.04
- viability ([20]; 0.008 µM): 1.04
- viability ([20]; 0.04 µM): 0.88
- viability ([20]; 0.2 µM): 0.896
- viability ([20]; 1 µM): 0.0673
